{"source": "patent US20100061994A1", "about": "“MEDICAL USES OF 39-DESMETHOXYRAPAMYCIN AND ANALOGUES THEREOF” (priority 2005, published 2010)", "key": {"Caco-2 cells": {"tested_on": "Caco-2 cells", "assay": "Caco-2 permeation assay", "details": "0.01 mM", "method": "(§1) Confluent Caco-2 cells (Li, A. P., 1992; Grass, G. M., et al., 1992, Volpe, D. A., et al., 2001) in a 24 well Corning Costar Transwell format were provided by In Vitro Technologies Inc. (IVT Inc., Baltimore, Md., USA). The apical chamber contained 0.15 mL Hank's balanced buffer solution (HBBS) pH 7.4, 1% DMSO, 0.1 mM Lucifer Yellow. The basal chamber contained 0.6 mL HBBS pH 7.4, 1% DMSO. Controls and tests were incubated at 37° C. in a humidified incubator, shaken at 130 rpm for 1 h. Lucifer Yellow permeates via the paracellular (between the tight junctions) route only, a high Apparent Permeability (Papp) for Lucifer Yellow indicates cellular damage during assay and all such wells were rejected. […] Compounds were tested in a uni- and bi-directional format by applying compound to the apical or basal chamber (at 0.01 mM). Compounds in the apical or basal chambers were analysed by HPLC-MS (Method A, see Materials & Methods). Results were expressed as Apparent Permeability, Papp, (nm/s) and as the Flux Ratio (A to B versus B to A).\n(§2) [formula] • Volume Acceptor: 0.6 ml (A>B) and 0.15 ml (B>A) • Area of monolayer: 0.33 cm2 • Δtime: 60 min\n(§3) A positive value for the Flux Ratio indicates active efflux from the apical surface of the cells."}, "FKBP12": {"target": "FKBP12 (Homo sapiens, UniProt P62942)", "sequence (P62942 whole entry, species assumed)": "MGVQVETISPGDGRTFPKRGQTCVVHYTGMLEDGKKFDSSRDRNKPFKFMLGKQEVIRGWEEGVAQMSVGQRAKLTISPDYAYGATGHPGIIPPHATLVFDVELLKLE", "assay": "In vitro FKBP12 binding assay (GdnHCl unfolding)", "excerpt": "FKBP12 reversibly unfolds in the chemical denaturant guandinium hydrochloride (GdnHCl) and the unfolding can be monitored by the change in the intrinsic fluorescence of the protein (Main et al, 1998). Ligands which specifically bind and stabilise the native state of FKBP12 shift the denaturation curve such that the protein unfolds at higher concentrations of chemical denaturant (Main et al, 1999). From the difference in stability, the ligand-binding constant can be determined using equation 1.\nwhere ΔGapp is the apparent difference in free energy of unfolding between free and ligand-bound forms, ΔGD−N^H^2^O is the free energy of unfolding in water of free protein, [L] the concentration of ligand and kd the dissociation constant for the protein-ligand complex (Meiering et al, 1992). The free energy of unfolding can be related to the midpoint of the unfolding transition using the following equation: […]\nwhere mD−N is a constant for a given protein and given denaturant and which is proportional to the change in degree of exposure of residues on unfolding (Tanford 1968 and Tanford 1970), and [D]50% is the concentration of denaturant corresponding to the midpoint of unfolding.\nwhere <mD−N> is the average m-value of the unfolding transition and Δ[D]50% the difference in midpoints for the rapamycin-FKBP12 unfolding transition and unknown-ligand-FKBP12 complex unfolding transition. Under conditions where [L]>Kd, then, ΔΔGD−N, can be related to the relative Kds of the two compounds through equation 4: […]"}, "[1]": {"assay": "Human Liver Microsomal (HLM) stability assay", "assay_type": "in vitro ADME", "details": "0.001 mM, 0.25 mg/mL protein, NADPH, 37° C.", "protocol": "Liver homogenates provide a measure of a compounds inherent vulnerability to Phase I (oxidative) enzymes, including CYP450s (e.g. CYP2C8, CYP2D6, CYP1A, CYP3A4, CYP2E1), esterases, amidases and flavin monooxygenases (FMOs).\nThe half life (T½) of test compounds was determined, on exposure to Human Liver Microsomes, by monitoring their disappearance over time by LC-MS. Compounds at 0.001 mM were incubated at for 40 min at 37° C., 0.1 M Tris-HCl, pH 7.4 with human microsomal sub-cellular fraction of liver at 0.25 mg/mL protein and saturating levels of NADPH as co-factor. At timed intervals, acetonitrile was added to test samples to precipitate protein and stop metabolism. Samples were centrifuged and analysed for parent compound using analytical Method A (see Materials & Methods)."}, "[2]": {"assay": "Pharmacokinetic analysis Protocol 1 (blood and brain)", "details": "female, CD1, mouse, 3 mg/kg", "method": "The test compounds were prepared in a vehicle consisting of 4% Ethanol, 5% Tween-20, 5% polyethyleneglycol 400 in 0.15M NaCl. A single dbse of 10 mg/kg p.o. or 3 mg/kg i.v. was administered to groups of female CD1 mice (3 mice for each compound per time point). At 0 min, 4 min, 15 min, 1 h, 4 h, and 24 h groups were sacrificed and the blood and the brain were collected from each mouse for further analysis.\nThe brain samples were snap frozen in liquid nitrogen and stored at −20° C. A minimum of 0.2 mL of whole blood from each animal was collected in tubes containing ethylene diamine tetra-acetic acid (EDTA) as anticoagulant, thoroughly mixed, and stored at −20° C.\nAnalysis was performed by ASI Limited, (St George's Hospital Medical School, London). The concentration of the test compound in the blood and brain samples supplied was determined by HPLC with MS detection. Control, test compound free, blood samples were obtained from Harlan Sera-Lab Limited, (Loughborough, England). Time zero brain samples were supplied as control, test compound free, brain samples.\nOne hemisphere of each brain was homogenized with 5 mL water.\nThe control or test sample of mouse brain or blood (0.05 mL), internal standard solution (0.1 mL), 5% Zinc sulphate solution (0.5 mL), and acetone (0.5 mL) were pipetted into a 2 mL polypropylene tube (Sarstedt Limited, Beaumont Leys, Leicester, UK) and the contents were then mixed for a minimum of 5 minutes (IKA-Vibrax-VXR mixer, Merck (BDH) Limited, Poole Dorset, UK). The tubes were then centrifuged in a microfuge for a minimum of 2 minutes. The solvent layer was decanted into a 4.5 mL polypropylene tube containing sodium hydroxide (0.1M, 0.1 mL) and methyl-tert-butyl ether (MTBE, 2 mL). The tube was then mixed for a minimum of 5 minutes (IKA-Vibrax-VXR mixer) and then centrifuged at 3500 rpm for 5 minutes. The solvent layer was transferred to a 4.5 mL conical polypropylene tube, placed in a SpeedVac® and evaporated to dryness.\nThe dried extracts were reconstituted with 0.15 mL 80% methanol and mixed for a minimum of 5 minutes (IKA-Vibrax-VXR mixer) and centrifuged at 3500 rpm for 5 minutes. The extract was transferred to auto sampler tubes (NLG Analytical, Adelphi Mill, Bollington, Cheshire, UK) and placed into the auto-sampler tray which was set at ambient temperature. The auto-sampler was programmed to inject a 0.03 mL aliquot of each extract onto the analytical column.\nThe AUC for each compound in blood or in brain tissue was calculated using Kinetica 4.4 (InnaPhase Corporation), using a non-compartmental model and the trapezoidal method for AUC calculation.\nThe partition coefficient (Ri) for each compound after p.o. and i.v. administration was calculated as shown below:\nThe partition coefficient (R) for each compound after i.v. administration was calculated as shown below:"}, "Caco-2 permeation assay": {"assay": "Caco-2 permeation assay", "details": "human, Caco-2, pH 7.4", "method": "as §1, §2, §3"}, "EAE": {"tested_on": "EAE", "assay": "Experimental allergic encephalomyelitis (EAE) model of multiple sclerosis", "assay_type": "in vivo, male Lewis rats", "details": "rat, in vivo"}, "[3]": {"details": "relative to literature Kd of rapamycin 0.2 nM"}}, "note": "Several values for one entry are separate records, joined by “and”; a condition that tells them apart may be missing. Identical values can stand only once. Like-named read-outs stand apart in the source and are kept apart here."}
{"compound": "16-O-desmethyl-27-O-desmethyl-39-desmethoxyrapamycin", "values": [{"measurement": "Caco-2: Efflux Ratio", "setting": "Caco-2 cells; bi-directional format", "result": 37}, {"measurement": "Caco-2: Papp", "setting": "Caco-2 cells; pH 7.4, 1 h", "result": 1.3, "unit": "×10⁻⁶ cm/s"}, {"measurement": "Kd", "setting": "FKBP12; [3]", "result": 101, "unit": "nM"}, {"measurement": "HLM stability: T½ min", "setting": "[1]", "result": 47, "unit": "min"}]}
{"compound": "CO[C@H]1CC2CC[C@@H](C)[C@@](O)(O2)C(=O)C(=O)N2CCCC[C@H]2C(=O)O[C@H]([C@@H](C)CC2CCC(O)CC2)CC(=O)[C@@H](C)/C=C(\\C)[C@H](O)[C@H](O)C(=O)[C@@H](C)C[C@H](C)/C=C/C=C/C=C/1C", "note": "(some centres unmarked) [27-O-desmethyl-39-desmethoxyrapamycin]", "values": [{"measurement": "Kp", "setting": "[2]; brain / whole blood, intravenous", "result": 4.56}, {"measurement": "AUC", "setting": "[2]; whole blood, iv", "result": 1850, "unit": "ng·h/mL"}, {"measurement": "Papp at 1 h, 0.01 mM", "setting": "Caco-2 permeation assay", "result": 0.4, "unit": "×10⁻⁶ cm/s"}, {"measurement": "efflux ratio at 1 h, 0.01 mM", "setting": "Caco-2 permeation assay", "result": 91}, {"measurement": "Kd", "setting": "FKBP12; [3]", "result": 0.8, "unit": "nM"}, {"measurement": "half-life at 0.001 mM", "setting": "[1]; human, liver microsomes, pH 7.4, read-out: HLM stability: T½ min", "result": 27, "unit": "min"}]}
{"compound": "COC1CC2CCC(C)C(O)(O2)C(=O)C(=O)N2CCCCC2C(=O)OC(C(C)CC2CCC(O)CC2)CC(=O)C(C)C=C(C)C(O)CC(=O)C(C)CC(C)C=CC=CC=C1C", "note": "(centres unmarked) [27-desmethoxy-39-desmethoxy rapamycin]", "values": [{"measurement": "Kd", "setting": "FKBP12", "result": 160, "unit": "nM"}]}
{"compound": "O=P1(N(CCCl)CCCl)NCCCO1", "note": "(centres unmarked) [Cyclophosphamide, reference compound]", "values": [{"measurement": "Cumulative score Mean ± St Dev.", "setting": "EAE", "result": "33 ± 14.1 and 37 ± 26.6"}, {"measurement": "Duration (days) Mean ± St Dev.", "setting": "EAE", "result": "13 ± 3.4 days and 15 ± 3.2 days"}, {"measurement": "Onset Mean ± St Dev.", "setting": "EAE", "result": "13 ± 2.6 and 11 ± 1.1"}]}
